For one compound, IC50 results are on record in ChEMBL document CHEMBL1287800, “Pyridylmethylthio derivatives as VEGF inhibitors. Part 1” (Bioorg Med Chem Lett, 2010).

pIC50: −log10 of the molar value.

The subject of this assay is HUVEC. The experiment in a line: Inhibition of VEGF-induced HUVEC proliferation treated 1 hr before VEGF challenge measured 3 days by WST-8 assay. The settings on record: Homo sapiens. Type of assay: functional, cell-based.

`Clc1ccc(Nc2nnc(Cc3ccncc3)c3ccccc23)cc1` [VATALANIB] gave a pIC50 of 7.48.
